From patent publication US8119651B2, “Compositions useful especially for treatment or prevention of metabolic syndrome” (Biotie Therapies Corp., priority 2004, dated 2012)
Where “and” joins values, the source holds several entries; their conditions need not be identical. Identical values can stand only once. Like-named read-outs stand apart in the source and are kept apart here. Each block holds one compound with its values, some of them ahead of it.

What was measured:
[1] = target: T1, serum VAP-1/SSAO (Homo sapiens, UniProt Q16853); assay: Serum VAP-1/SSAO enzymatic activity of volunteers before and after oral intake
T1 sequence (Q16853 27-763 limits assumed): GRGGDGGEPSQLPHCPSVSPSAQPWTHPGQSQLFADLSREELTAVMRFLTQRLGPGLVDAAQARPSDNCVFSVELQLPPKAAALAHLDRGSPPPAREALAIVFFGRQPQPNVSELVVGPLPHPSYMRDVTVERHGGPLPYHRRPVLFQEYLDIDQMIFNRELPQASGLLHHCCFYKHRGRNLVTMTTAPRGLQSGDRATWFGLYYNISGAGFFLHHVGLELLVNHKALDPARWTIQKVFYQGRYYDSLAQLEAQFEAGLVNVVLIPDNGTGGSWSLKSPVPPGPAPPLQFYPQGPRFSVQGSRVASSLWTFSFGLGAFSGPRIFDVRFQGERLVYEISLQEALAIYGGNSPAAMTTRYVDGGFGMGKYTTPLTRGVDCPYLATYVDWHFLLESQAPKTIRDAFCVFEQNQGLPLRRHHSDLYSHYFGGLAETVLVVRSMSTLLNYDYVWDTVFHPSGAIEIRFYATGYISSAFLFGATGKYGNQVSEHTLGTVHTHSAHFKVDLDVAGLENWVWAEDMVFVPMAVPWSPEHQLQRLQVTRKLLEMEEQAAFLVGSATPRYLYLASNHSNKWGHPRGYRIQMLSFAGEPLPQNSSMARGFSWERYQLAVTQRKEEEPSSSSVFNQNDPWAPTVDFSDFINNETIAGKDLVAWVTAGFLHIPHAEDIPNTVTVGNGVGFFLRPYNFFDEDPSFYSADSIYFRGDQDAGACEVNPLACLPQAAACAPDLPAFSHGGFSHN

[2] = target: T2, SSAO activity of VAP-1 transfected CHO cells (Homo sapiens, UniProt Q16853); assay: Fluorometric detection of SSAO-mediated H2O2 formation (Amplex Red); format: cell-based; conditions: for Inhibition of SSAO activity (controls): 1 mg/ml, VAP-1 transfected CHO cells
T2 construct: expressed in transfected cells; host or cells: CHO cells
T2 sequence (Q16853 1-763): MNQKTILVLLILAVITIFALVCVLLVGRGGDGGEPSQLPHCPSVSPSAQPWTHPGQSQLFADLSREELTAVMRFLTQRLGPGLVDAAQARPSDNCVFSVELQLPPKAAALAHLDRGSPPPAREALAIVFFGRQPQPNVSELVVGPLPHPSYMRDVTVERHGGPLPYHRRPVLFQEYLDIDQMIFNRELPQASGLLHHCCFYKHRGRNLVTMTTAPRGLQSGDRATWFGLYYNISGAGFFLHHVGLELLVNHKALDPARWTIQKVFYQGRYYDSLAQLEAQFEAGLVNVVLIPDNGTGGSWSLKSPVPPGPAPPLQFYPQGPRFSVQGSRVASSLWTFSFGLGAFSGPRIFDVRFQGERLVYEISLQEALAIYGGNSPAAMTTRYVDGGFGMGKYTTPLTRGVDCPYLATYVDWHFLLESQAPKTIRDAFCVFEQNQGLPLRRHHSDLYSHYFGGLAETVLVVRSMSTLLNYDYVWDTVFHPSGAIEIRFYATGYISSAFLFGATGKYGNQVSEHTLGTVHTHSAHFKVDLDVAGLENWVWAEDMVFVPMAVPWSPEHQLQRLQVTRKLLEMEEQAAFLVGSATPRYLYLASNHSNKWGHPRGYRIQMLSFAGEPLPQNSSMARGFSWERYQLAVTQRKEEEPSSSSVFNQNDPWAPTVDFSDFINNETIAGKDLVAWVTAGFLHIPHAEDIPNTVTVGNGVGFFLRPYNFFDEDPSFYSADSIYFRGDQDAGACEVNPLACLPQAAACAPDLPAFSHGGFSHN
Procedure: Molecular Probes Europe BV), a highly sensitive and stable probe for H2O2. […] Catalytic reaction was initiated by addition of benzylamine as substrates and H2O2-detecting mixture containing horseradish peroxidase (final concentration 0.8 U/ml) and Amplex Red reagent (60 μM). The plates were incubated for 1-2 hours at 37° C. in the final volume of 250 μl, the bathing medium was clarified by centrifugation and placed in aliquots (200 μl) into white non-phosphorescent microplates (Cliniplate). Fluorescence intensity of the samples was measured (excitation, 545 nm; emission, 590 nm; Tecan ULTRA fluoropolarometer) and H2O2 concentration was calculated from calibration curves generated by serial dilutions of either standard H2O2 or resorufin, the product of the Amplex Red reaction (Molecular Probes).

[3] = target: T3, amine oxidase, copper containing 3 (AOC3) (Homo sapiens, UniProt Q16853); assay: Enzyme inhibiting activity of FP-1113 versus thiamine (FIG. 3)
T3 sequence (Q16853 1-763): T2 sequence (Q16853 1-763)
Procedure: The enzyme inhibiting activity was tested as described above.

[4] = target: serum VAP-1/SSAO (Homo sapiens, UniProt Q16853)
Procedure: Amine oxidase activity was assayed radiochemically using [7-^14C]-benzylamine hydrochloride (spec. act. 57 mCi/mmol, Amersham) as a substrate and 25 microliters of serum. […] Potential inhibition of serum VAP-1/SSAO enzymatic activity was measured in presence of indicated concentrations of thiamine. Finally, enzymatic activity of serum VAP-1/SSAO of six volunteers was measured before and after eating vitamin B1 100 mg/day for 5 to 9 days. Similarly serum VAP-1/SSAO activity of four volunteers eating benfothiamine 200 mg/day for four days was measured.

[5] = system: mice; assay: Glycosylated hemoglobin (HbAlc) in blood of fasted mice; format: in vivo; conditions: oral methylamine supplementation, 57-59 week old mice
Procedure: The increases in blood glucose over fasting blood glucose levels at 30, 60, 90, and 120 minutes after glucose challenge (2.0 g IP glucose/kg body weight) are expressed as mean+SEM. (A) Glucose challenge of 26 week old non-transgenic (open symbols) and mTIEhVAP-1 transgenic mice (filled symbols) with normal tap water (solid lines) or with methylamine supplemented water (dashed lines). Significant effects on the rate of glucose clearance were identified by comparing the areas under the curve (AUC) of individual mice with an ANOVA (methylamine p=0.0002 and methylamine/transgene interaction p=0.046) and by comparing glucose levels at individual time points with unpaired Student's t-tests (asterisks, p<0.01 versus non-transgenic mice with normal water; crosses, p<0.02 versus non-transgenic mice with methylamine). (B) Glucose challenge of 10-12 week old transgenic mice with normal tap water (solid line) followed by 16 days of treatment with methylamine supplemented water (squares and dashed lines), and methylamine supplemented water as well as SSAO inhibitor injections (triangles and dashed lines). […] (C) The mean±SEM percent of glycosylated hemoglobin (HbAlc) was determined from the blood of fasted, 57-59 week old non-transgenic (white bars) and transgenic (black bars) mice with (gray strips) or without oral methylamine supplementation. […]

[6] = system: mice; assay: Aorta surface area positive for Oil Red O staining (atherosclerosis); format: in vivo; conditions: methylamine supplementation, versus untreated controls
Procedure: The percentage of aorta surface area positive for Oil Red O staining was determined for the mice in each group.

[7] = system: mice; assay: Systolic arterial blood pressure and heart rate, tail cuff method; format: in vivo; conditions: methylamine supplementation
Procedure: Systolic arterial blood pressure and heart rate were measured in all of the groups using the tail cuff method. […] A trend for elevated blood pressure was also found with the transgene alone.

[8] = system: mTIEhVAP-1 transgenic mice; assay: Glucose challenge of mTIEhVAP-1 transgenic and non-transgenic mice; format: in vivo; conditions: methylamine supplemented water; 2.0 g IP glucose/kg
Procedure: The increases in blood glucose over fasting blood glucose levels at 30, 60, 90, and 120 minutes after glucose challenge (2.0 g IP glucose/kg body weight) are expressed as mean±SEM. FIG. 1A: Glucose challenge of 26 week old non-transgenic (open symbols) and mTIEhVAP-1 transgenic mice (filled symbols) with normal tap water (solid lines) or with methylamine supplemented water (dashed lines). FIG. 1B: Glucose challenge of 10-12 week old transgenic mice with normal tap water (solid line) followed by 16 days of treatment with methylamine supplemented water (squares and dashed lines), and methylamine supplemented water as well as SSAO inhibitor injections (triangles and dashed lines). FIG. 1C: The mean±SEM percent of glycosylated hemoglobin (HbAlc) was determined from the blood of fasted, 57-59 week old non-transgenic (white bars) and transgenic (black bars) mice with (gray strips) or without oral methylamine supplementation. […]
The increases in blood glucose over fasting blood glucose levels at 30, 60, 90, and 120 minutes after glucose challenge (2.0 g IP glucose/kg body weight) are expressed as mean+SEM. […] (C) The mean±SEM percent of glycosylated hemoglobin (HbAlc) was determined from the blood of fasted, 57-59 week old non-transgenic (white bars) and transgenic (black bars) mice with (gray strips) or without oral methylamine supplementation. […]

[9] = volunteers, 100 mg/day for 5 to 9 days

Compound: Cc1c(CCO)sc[n+]1Cc1ccccc1N.Cl.[Cl-] [FP-1113, 3-(2-aminobenzyl)-5-(2-hydroxyethyl)-4-methyl-thiazolium Chloride Hydrochloride]
SSAO inhibition compared with thiamine [3]: stronger SSAO-inhibitor than thiamine

Compound: penicillin
Inhibition of SSAO activity (controls) [2]: did not inhibit the activity

Compound: CN [methylamine]
HbAlc levels [5]: decreased | Percentage of lesion formation in aorta [6]: increased the percentage of lesion formation | Heart rate [7]: did not affect heart rate | Systolic arterial blood pressure [7]: significantly elevated blood pressure | Glucose tolerance after glucose challenge [8]: enhance glucose tolerance

Further lines, results first:

Decrease of SSAO activity, each individual ([1]; four volunteers, 200 mg/day for four days): 9% and 24% and 8% and 27%
Compound: C/C(=C(\CCOP(=O)(O)O)SC(=O)c1ccccc1)N(C=O)Cc1cnc(C)nc1N [benfothiamine, benfotiamine]

Inhibition of SSAO activity (controls) [2]: did not inhibit the activity
Compound: CC1(C)S[C@@H]2[C@H](NC(=O)[C@H](N)c3ccccc3)C(=O)N2[C@H]1C(=O)O [ampicillin]

inhibition at 63 µg/mL ([2]; CHO, thiamine 63 μg/ml, VAP-1 transfected cells): 10.5 ± 8.5% | inhibition at 125 µg/mL ([2]; CHO, thiamine 125 μg/ml, VAP-1 transfected cells): 26.5 ± 11% | inhibition at 175 µg/mL ([2]; CHO, thiamine 175 μg/ml, VAP-1 transfected cells): 35.5 ± 2.5% | inhibition at 250 µg/mL ([2]; CHO, thiamine 250 μg/ml, VAP-1 transfected cells): 42 ± 2% | inhibition at 375 µg/mL ([2]; CHO, thiamine 375 μg/ml, VAP-1 transfected cells): 47 ± 9% | inhibition at 500 µg/mL ([2]; CHO, thiamine 500 μg/ml, VAP-1 transfected cells): 61.5 ± 2.5% | Decrease of VAP-1 enzyme activity at the end of the experiment, mean of responders [1, 9]: 19% | Volunteers responding [1, 9]: Four of the six volunteers responded | Decrease of VAP-1 enzyme activity at the end of the experiment, individual responders ([1]; volunteers, 100 mg/day for 5 to 9 days, listed as vitamin B1): 25% and 2% and 32% and 16% | Decrease of serum VAP-1/SSAO activity in vitro ([4]; 1 mg/ml): 87% | Decrease of serum VAP-1/SSAO activity in vitro ([4]; 200 micrograms/ml): 32% | Decrease of serum VAP-1/SSAO activity in vitro ([4]; 400 micrograms/ml): 39% | Decrease of serum VAP-1/SSAO activity in vitro ([4]; 800 micrograms/ml): 70%
Compound: Cc1ncc(C[n+]2csc(CCO)c2C)c(N)n1 [Thiamine, thiamine]
